Data taken from ChEMBL document CHEMBL1139392, “Synthesis and antibacterial activities of novel oxazolidinones having cyclic sulfonamide moieties” (2008).
≈ marks a conversion by molar mass, not a printed value.

Assays:
Assay type in all cases: functional
Staphylococcus aureus [1] = test: Antibacterial activity against methicillin-resistant Staphylococcus aureus 1 after 18 to 20 hrs by agar dilution method
Enterococcus [2] = test: Antibacterial activity against vancomycin-resistant Enterococcus 6 after 18 to 20 hrs by agar dilution method
Streptococcus pyogenes = test: Antibacterial activity against Streptococcus pyogenes ATCC 8736 after 18 to 20 hrs by agar dilution method
Enterococcus [3] = test: Antibacterial activity against vancomycin-resistant Enterococcus 5 after 18 to 20 hrs by agar dilution method
Staphylococcus = test: Antibacterial activity against coagulase negative Staphylococcus after 18 to 20 hrs by agar dilution method
Staphylococcus aureus [4] = test: Antibacterial activity against Staphylococcus aureus C463 after 18 to 20 hrs by agar dilution method
Enterococcus [5] = test: Antibacterial activity against vancomycin-resistant Enterococcus 3 after 18 to 20 hrs by agar dilution method
Enterococcus faecium [6] = test: Antibacterial activity against vancomycin-resistant Enterococcus faecium 1 after 18 to 20 hrs by agar dilution method
Enterococcus [7] = test: Antibacterial activity against vancomycin-resistant Enterococcus 2 after 18 to 20 hrs by agar dilution method
Enterococcus [8] = test: Antibacterial activity against vancomycin-resistant Enterococcus 1 after 18 to 20 hrs by agar dilution method
Enterococcus faecalis = test: Antibacterial activity against Enterococcus faecalis C474 after 18 to 20 hrs by agar dilution method
Enterococcus faecium [9] = test: Antibacterial activity against Enterococcus faecium C803 after 18 to 20 hrs by agar dilution method
Enterococcus faecium [10] = test: Antibacterial activity against vancomycin-resistant Enterococcus faecium 2 after 18 to 20 hrs by agar dilution method
Enterococcus [11] = test: Antibacterial activity against vancomycin-resistant Enterococcus 4 after 18 to 20 hrs by agar dilution method
Haemophilus influenzae = test: Antibacterial activity against Haemophilus influenzae after 18 to 20 hrs by agar dilution method
Streptococcus agalactiae = test: Antibacterial activity against Streptococcus agalactiae ATCC 2901 after 18 to 20 hrs by agar dilution method
Streptococcus pneumoniae = test: Antibacterial activity against Streptococcus pneumoniae C402 after 18 to 20 hrs by agar dilution method

Row | Structure (SMILES) | MIC (Staphylococcus aureus [1]) [µg/mL] | MIC (Enterococcus [2]) [µg/mL] | MIC (Streptococcus pyogenes) [µg/mL] | MIC (Enterococcus [3]) [µg/mL] | MIC (Staphylococcus) [µg/mL] | MIC (Staphylococcus aureus [4]) [µg/mL] | MIC (Enterococcus [5]) [µg/mL] | MIC (Enterococcus faecium [6]) [µg/mL] | MIC (Enterococcus [7]) [µg/mL] | MIC (Enterococcus [8]) [µg/mL] | MIC (Enterococcus faecalis) [µg/mL] | MIC (Enterococcus faecium [9]) [µg/mL] | MIC (Enterococcus faecium [10]) [µg/mL] | MIC (Enterococcus [11]) [µg/mL] | MIC (Haemophilus influenzae) [µg/mL] | MIC (Streptococcus agalactiae) [µg/mL] | MIC (Streptococcus pneumoniae) [µg/mL]
1 | CC(=O)NC[C@H]1CN(c2ccc(N3CCOS3(=O)=O)c(F)c2)C(=O)O1 | 3.12 (≈ 8.36 µM) | 3.12 (≈ 8.36 µM) | 0.78 (≈ 2.09 µM) | 1.56 (≈ 4.18 µM) | 3.12 (≈ 8.36 µM) | 3.12 (≈ 8.36 µM) | 3.12 (≈ 8.36 µM) | 1.56 (≈ 4.18 µM) | 1.56 (≈ 4.18 µM) | 1.56 (≈ 4.18 µM) | 1.56 (≈ 4.18 µM) | 1.56 (≈ 4.18 µM) | 1.56 (≈ 4.18 µM) | 3.12 (≈ 8.36 µM) | 3.12 (≈ 8.36 µM) | 0.39 (≈ 1.04 µM) | 1.56 (≈ 4.18 µM)
2 | CC(=O)NC[C@H]1CN(c2ccc(N3CC(C)(C)NS3(=O)=O)c(F)c2)C(=O)O1 | 12.5 (≈ 31.2 µM) | 12.5 (≈ 31.2 µM) | 6.25 (≈ 15.6 µM) | 12.5 (≈ 31.2 µM) | 12.5 (≈ 31.2 µM) | 12.5 (≈ 31.2 µM) | 6.25 (≈ 15.6 µM) | 12.5 (≈ 31.2 µM) | 12.5 (≈ 31.2 µM) | 25 (≈ 62.4 µM) | 12.5 (≈ 31.2 µM) | 25 (≈ 62.4 µM) | 12.5 (≈ 31.2 µM) | 12.5 (≈ 31.2 µM) | 25 (≈ 62.4 µM) | 12.5 (≈ 31.2 µM) | 12.5 (≈ 31.2 µM)
3 | CC(=O)NC[C@H]1CN(c2ccc(N3CCN(C)S3(=O)=O)c(F)c2)C(=O)O1 | 3.12 (≈ 8.07 µM) | 3.12 (≈ 8.07 µM) | 1.56 (≈ 4.04 µM) | 3.12 (≈ 8.07 µM) | 6.25 (≈ 16.2 µM) | 3.12 (≈ 8.07 µM) | 3.12 (≈ 8.07 µM) | 3.12 (≈ 8.07 µM) | 6.25 (≈ 16.2 µM) | 6.25 (≈ 16.2 µM) | 3.12 (≈ 8.07 µM) | 3.12 (≈ 8.07 µM) | 3.12 (≈ 8.07 µM) | 3.12 (≈ 8.07 µM) | 3.12 (≈ 8.07 µM) | 1.56 (≈ 4.04 µM) | 0.78 (≈ 2.02 µM)
4 | CC(=O)NC[C@H]1CN(c2ccc(N3CCCNS3(=O)=O)c(F)c2)C(=O)O1 | 1.56 (≈ 4.04 µM) | 3.12 (≈ 8.07 µM) | 1.56 (≈ 4.04 µM) | 3.12 (≈ 8.07 µM) | 1.56 (≈ 4.04 µM) | 3.12 (≈ 8.07 µM) | 0.78 (≈ 2.02 µM) | 3.12 (≈ 8.07 µM) | 1.56 (≈ 4.04 µM) | 3.12 (≈ 8.07 µM) | 1.56 (≈ 4.04 µM) | 1.56 (≈ 4.04 µM) | 1.56 (≈ 4.04 µM) | 3.12 (≈ 8.07 µM) | 1.56 (≈ 4.04 µM) | 1.56 (≈ 4.04 µM) | 0.78 (≈ 2.02 µM)
5 | CC(=O)NC[C@H]1CN(c2ccc(N3CCNS3(=O)=O)c(F)c2)C(=O)O1 | 0.2 (≈ 0.537 µM) | 0.78 (≈ 2.09 µM) | 0.2 (≈ 0.537 µM) | 0.39 (≈ 1.05 µM) | 0.2 (≈ 0.537 µM) | 0.39 (≈ 1.05 µM) | 0.78 (≈ 2.09 µM) | 0.2 (≈ 0.537 µM) | 0.39 (≈ 1.05 µM) | 0.78 (≈ 2.09 µM) | 0.2 (≈ 0.537 µM) | 0.39 (≈ 1.05 µM) | 0.2 (≈ 0.537 µM) | 0.78 (≈ 2.09 µM) | 0.2 (≈ 0.537 µM) | 0.2 (≈ 0.537 µM) | 0.2 (≈ 0.537 µM)
6 | CC(=O)NC[C@H]1CN(c2ccc(N3CCCN(C)S3(=O)=O)c(F)c2)C(=O)O1 | 1.56 (≈ 3.9 µM) | 1.56 (≈ 3.9 µM) | 0.78 (≈ 1.95 µM) | 1.56 (≈ 3.9 µM) | 1.56 (≈ 3.9 µM) | 1.56 (≈ 3.9 µM) | 1.56 (≈ 3.9 µM) | 0.78 (≈ 1.95 µM) | 1.56 (≈ 3.9 µM) | 1.56 (≈ 3.9 µM) | 1.56 (≈ 3.9 µM) | 1.56 (≈ 3.9 µM) | 1.56 (≈ 3.9 µM) | 1.56 (≈ 3.9 µM) | 1.56 (≈ 3.9 µM) | 1.56 (≈ 3.9 µM) | 0.78 (≈ 1.95 µM)
7 | CC(=O)NC[C@H]1CN(c2ccc(N3CCOCC3)c(F)c2)C(=O)O1 [LINEZOLID] | 3.12 (≈ 9.25 µM) | 1.56 (≈ 4.62 µM) | 0.39 (≈ 1.16 µM) | 1.56 (≈ 4.62 µM) | 1.56 (≈ 4.62 µM) | 1.56 (≈ 4.62 µM) | 1.56 (≈ 4.62 µM) | 1.56 (≈ 4.62 µM) | 1.56 (≈ 4.62 µM) | 0.78 (≈ 2.31 µM) | 1.56 (≈ 4.62 µM) | 1.56 (≈ 4.62 µM) | 0.78 (≈ 2.31 µM) | 1.56 (≈ 4.62 µM) | 1.56 (≈ 4.62 µM) | 1.56 (≈ 4.62 µM) | 0.39 (≈ 1.16 µM)
8 | CCN1CCN(c2ccc(N3C[C@H](CNC(C)=O)OC3=O)cc2F)S1(=O)=O | 6.25 (≈ 15.6 µM) | 3.12 (≈ 7.79 µM) | 0.78 (≈ 1.95 µM) | 6.25 (≈ 15.6 µM) | 6.25 (≈ 15.6 µM) | 6.25 (≈ 15.6 µM) | 3.12 (≈ 7.79 µM) | 6.25 (≈ 15.6 µM) | 6.25 (≈ 15.6 µM) | 3.12 (≈ 7.79 µM) | 3.12 (≈ 7.79 µM) | 1.56 (≈ 3.9 µM) | 3.12 (≈ 7.79 µM) | 3.12 (≈ 7.79 µM) | 3.12 (≈ 7.79 µM) | 3.12 (≈ 7.79 µM) | 0.78 (≈ 1.95 µM)
9 | CC(=O)NC[C@H]1CN(c2ccc(N3CCN(Cc4ccccc4)S3(=O)=O)c(F)c2)C(=O)O1 | 6.25 (≈ 13.5 µM) | 6.25 (≈ 13.5 µM) | 6.25 (≈ 13.5 µM) | 6.25 (≈ 13.5 µM) | 6.25 (≈ 13.5 µM) | 6.25 (≈ 13.5 µM) | 1.56 (≈ 3.37 µM) | 6.25 (≈ 13.5 µM) | 6.25 (≈ 13.5 µM) | 6.25 (≈ 13.5 µM) | 6.25 (≈ 13.5 µM) | 6.25 (≈ 13.5 µM) | 1.56 (≈ 3.37 µM) | 6.25 (≈ 13.5 µM) | 3.12 (≈ 6.75 µM) | 6.25 (≈ 13.5 µM) | 6.25 (≈ 13.5 µM)
10 | CC(=O)NC[C@H]1CN(c2ccc(N3CCN(C(=O)OC(C)(C)C)S3(=O)=O)c(F)c2)C(=O)O1 | 12.5 (≈ 26.5 µM) | 12.5 (≈ 26.5 µM) | 6.25 (≈ 13.2 µM) | 12.5 (≈ 26.5 µM) | 12.5 (≈ 26.5 µM) | 12.5 (≈ 26.5 µM) | 6.25 (≈ 13.2 µM) | 12.5 (≈ 26.5 µM) | 25 (≈ 52.9 µM) | 25 (≈ 52.9 µM) | 12.5 (≈ 26.5 µM) | 25 (≈ 52.9 µM) | 12.5 (≈ 26.5 µM) | 6.25 (≈ 13.2 µM) | 6.25 (≈ 13.2 µM) | 6.25 (≈ 13.2 µM) | 25 (≈ 52.9 µM)
11 | CC(=O)NC[C@H]1CN(c2ccc(N3CC(C)NS3(=O)=O)c(F)c2)C(=O)O1 (some centres not stated) | 12.5 (≈ 32.3 µM) | 12.5 (≈ 32.3 µM) | 1.56 (≈ 4.04 µM) | 12.5 (≈ 32.3 µM) | 12.5 (≈ 32.3 µM) | 12.5 (≈ 32.3 µM) | 6.25 (≈ 16.2 µM) | 6.25 (≈ 16.2 µM) | 12.5 (≈ 32.3 µM) | 6.25 (≈ 16.2 µM) | 6.25 (≈ 16.2 µM) | 3.12 (≈ 8.07 µM) | 6.25 (≈ 16.2 µM) | 6.25 (≈ 16.2 µM) | 6.25 (≈ 16.2 µM) | 3.12 (≈ 8.07 µM) | 3.12 (≈ 8.07 µM)
